One test concerns E. coli ECO 190317. Description: MIC of compounds alone, broth microdilution (CLSI). The note with it: Escherichia coli, ECO190317, read-out: MIC alone. For orientation: In broth dilution the organism is exposed to a series of concentrations in liquid medium.
The target in another test is T1, OXA-11 (Pseudomonas aeruginosa, UniProt Q06778).
T1 construct: made in house; host or cells: E. coli
Description: biochemical.

The target in the next test is T2, TEM-1 (Escherichia coli, UniProt P62593).
T2 construct: made in house; host or cells: E. coli
Description: β-lactamase inhibitory activity, nitrocefin hydrolysis. It counts as biochemical.

For another test, the target named is T3, OXA-1 (Escherichia coli, UniProt P13661).
T3 construct: made in house; host or cells: E. coli
Description: biochemical.

The target of the next test is T4, CTX-M-15 (Escherichia coli, UniProt Q9EXV5).
T4 construct: made in house; host or cells: E. coli
Description: biochemical.

The target of the next test is T5, SHV-1 (Klebsiella pneumoniae, UniProt P0AD64).
T5 construct: made in house; host or cells: E. coli
Description: biochemical.

The target of another test is T6, OXA-15 (Pseudomonas aeruginosa, UniProt Q51574).
T6 construct: made in house; host or cells: E. coli
Description: biochemical.

The target in the next test is T7, AmpC P. aeruginosa (Pseudomonas aeruginosa, UniProt P24735).
T7 construct: made in house; host or cells: E. coli
Description: biochemical.

The target in a further test is T8, KPC-2 (Klebsiella pneumoniae, UniProt Q9F663).
T8 construct: made in house; host or cells: E. coli
Description: biochemical.

For another test, the target named is P99 AmpC (Enterobacter cloacae, UniProt P05364). Description: biochemical.
The next test addresses T9, OXA-48 (Klebsiella pneumoniae, UniProt Q6XEC0).
T9 construct: made in house; host or cells: E. coli
Description: biochemical.

The mark [1] stands for this setting: class (A), nitrocefin 200 μM, 30 min pre-incubation, room temperature, read-out: BLA IC50 TEM-1.
The mark [2] stands for this setting: class (D), nitrocefin 200 μM, 30 min pre-incubation, room temperature, read-out: BLA IC50 OXA-1.
Where [3] appears, read: class (A), nitrocefin 200 μM, 30 min pre-incubation, room temperature, read-out: BLA IC50 CTX-M-15.
[4] abbreviates: class (A), nitrocefin 200 μM, 30 min pre-incubation, room temperature, read-out: BLA IC50 KPC-2.
Setting [5] is: class (D), nitrocefin 200 μM, 30 min pre-incubation, room temperature, read-out: BLA IC50 OXA-48.
The mark [6] stands for this setting: class (C), nitrocefin 200 μM, 30 min pre-incubation, room temperature, read-out: BLA IC50 AmpC (PAE).

Where a name gives a salt, the structure may show the parent alone. Read-outs that look alike come from different tables or passages of the source.

What is called MIC is the lowest concentration that inhibits growth of the organism. Take `NC(=O)[C@@H]1c2c(sc3ccccc23)[C@@H]2CN1C(=O)N2OS(=O)(=O)[O-].[Na+]` (relative stereo) [Example 3]: the minimum inhibitory concentration (MIC) with E. coli ECO 190317 is 8 µg/mL.
As a reminder, the IC50 is the point on the concentration scale where inhibition reaches its midpoint. Consider `CCOC(=O)[C@@H]1c2c(sc3ccccc23)[C@@H]2CN1C(=O)N2OS(=O)(=O)[O-].[Na+]` (relative stereo) [Example 2, sulfate], for which the IC50 against OXA-11 was 2.2 nM; on TEM-1 (setting [1]), 0.22 nM; at OXA-1 (setting [2]), 37 nM; at CTX-M-15 (setting [3]), 2.6 nM; against SHV-1 it was 0.43 nM; at OXA-15, 830 nM. Also, the IC50 worked out at 2.5 nM against AmpC P. aeruginosa, 0.94 nM at KPC-2 (setting [4]), 0.51 nM on P99 AmpC and 0.66 nM at OXA-48 (setting [5]).
`CC(C)(O/N=C(\C(=O)N[C@@H]1C(=O)N2C(C(=O)[O-])=C(C[n+]3ccccc3)CS[C@H]12)c1csc(N)n1)C(=O)O` [CAZ, Ceftazidime, reference compound]: the MIC with E. coli ECO 190317 was found to be 128 µg/mL.
Turning to `CCOC(=O)[C@@H]1c2c(n(C)c3ccccc23)[C@@H]2CN1C(=O)N2OS(=O)(=O)[O-].[Na+]` (relative stereo) [Example 6], the minimum inhibitory concentration (MIC) in the test with E. coli ECO 190317 is greater than 32 µg/mL.
Turning to `CCN(CC)C(=O)N1CCc2sc3c(c2C1)CN1CC3N(OS(=O)(=O)O)C1=O` (stereo not drawn) [Example 7, sodium [9-(diethylcarbamoyl)-2,5-methano-3-oxo-5,7,8,10-tetrahydro-1H-pyrido[3,4]thieno[1,3-d][1,3]diazepin-4-yl] sulfate], the IC50 against OXA-11 turned out to be 110 nM; against TEM-1, 43 nM; on OXA-1 (setting [2]) it was 5100 nM; at CTX-M-15 (setting [3]), 1.3 nM; against SHV-1, 13 nM; at OXA-15, 14000 nM. Also, the IC50 on AmpC P. aeruginosa (setting [6]) worked out at 550 nM; on KPC-2 (setting [4]) it was 26 nM; at OXA-48 (setting [5]) it was 6.8 nM. For the same compound, the minimal inhibitory concentration (MIC) with E. coli ECO 190317 is greater than 32 µg/mL.
As for `NC(=O)[C@@H]1c2c(sc3ccccc23)[C@@H]2CN1C(=O)N2OS(=O)(=O)[O-].[Na+]` (relative stereo) [Example 3, sulfate], the half-maximal inhibitory concentration (IC50) amounted to 31 nM on OXA-11; 1.3 nM on TEM-1 (setting [1]); 190 nM on OXA-1 (setting [2]); 2.5 nM at CTX-M-15 (setting [3]); 2.2 nM against SHV-1; 7100 nM at OXA-15. In addition, the 50% inhibitory concentration (IC50) on AmpC P. aeruginosa (setting [6]) worked out at 62 nM; on KPC-2 (setting [4]), 9.3 nM; against P99 AmpC, 4.5 nM; on OXA-48 (setting [5]), 4.8 nM.
Turning to `O=C1N2Cc3nc4ccccc4cc3C(C2)N1OS(=O)(=O)[O-].[Na+]` (stereo not drawn) [Example 4, sodium 1,4-methano-3-oxo-1,5-dihydro-[1,3]diazepino[5,6-b]quinolin-2-yl) sulfate], the half-maximal inhibitory concentration (IC50) against OXA-11 came to 590 nM; at TEM-1 (setting [1]), 36 nM; on OXA-1 (setting [2]) it was 4100 nM; on CTX-M-15 (setting [3]) it was 9.9 nM; against SHV-1, 150 nM; on OXA-15, 13000 nM. Moreover, the IC50 is 2800 nM at AmpC P. aeruginosa (setting [6]), 370 nM on KPC-2 (setting [4]), 120 nM against P99 AmpC and 1.5 nM on OXA-48 (setting [5]).
As to `O=C1N2Cc3nc4ccccc4cc3C(C2)N1OS(=O)(=O)[O-].[Na+]` (stereo not drawn) [Example 4], the minimum inhibitory concentration (MIC) in the test on E. coli ECO 190317 is 8 µg/mL.
For the compound `CCOC(=O)[C@@H]1c2c(n(C)c3ccccc23)[C@@H]2CN1C(=O)N2OS(=O)(=O)[O-].[Na+]` (relative stereo) [Example 6, sulfate], the IC50 against OXA-11 amounted to 160 nM; at TEM-1 (setting [1]), 0.2 nM; at OXA-1 (setting [2]) it was 1300 nM; on CTX-M-15 (setting [3]) it was 1.5 nM; at SHV-1 it was 0.25 nM; at OXA-15, 6500 nM. In addition, the IC50 on AmpC P. aeruginosa (setting [6]) stood at 3.6 nM; on KPC-2 (setting [4]), 4.2 nM; on P99 AmpC, 2 nM; on OXA-48 (setting [5]) it was 4.6 nM.
Regarding `O=C1N2Cc3c(sc4c3CNCC4)C(C2)N1OS(=O)(=O)O` (stereo not drawn) [Example 8, (2,5-methano-3-oxo-1,5,7,8,9,10-hexahydropyrido[2,3]thieno[2,4-d][1,3]diazepin-4-yl) hydrogen Sulfate], the IC50 at OXA-11 amounted to 840 nM; at TEM-1 (setting [1]) it was 9.6 nM; on OXA-1 (setting [2]) it was 15000 nM; at CTX-M-15 (setting [3]), 6.1 nM; at SHV-1 it was 26 nM; on OXA-15, 30000 nM. Further, the IC50 turned out to be 8600 nM on AmpC P. aeruginosa (setting [6]), 1300 nM at KPC-2 (setting [4]), 1600 nM against P99 AmpC and 18 nM at OXA-48 (setting [5]). Besides, the MIC in the test with E. coli ECO 190317 amounted to 1 µg/mL.
In the case of `Cn1c2c(c3scnc31)C1CN(C2)C(=O)N1OS(=O)(=O)O` (stereo not drawn) [Example 9, sodium (6,9-methano-4-methyl-7-oxo-5,9-dihydrothiazolo[3,4]pyrrolo[1,3-d][1,3]diazepin-8-yl) sulfate], the IC50 against OXA-11 turned out to be 62 nM; against TEM-1, 0.49 nM; at OXA-1, 290 nM; on CTX-M-15, 1.1 nM; at SHV-1, 0.57 nM; on OXA-15, 940 nM. Also, the IC50 at AmpC P. aeruginosa was determined as 590 nM; against KPC-2, 26 nM; against P99 AmpC, 120 nM; at OXA-48, 1.2 nM. Besides, the minimal inhibitory concentration (MIC) in the test on E. coli ECO 190317 was greater than 32 µg/mL.
Turning to `O=C1N2Cc3nc4cnccc4cc3C(C2)N1OS(=O)(=O)[O-].[Na+]` (stereo not drawn) [Example 5, sodium (1,4-methano-3-oxo-1,5-dihydro-[1,3]diazepino[5,6-b][1,7]naphthyridin-2-yl) sulfate], the 50% inhibitory concentration (IC50) against OXA-11 was 190 nM; at TEM-1 (setting [1]), 14 nM; on OXA-1 (setting [2]), 1700 nM; on CTX-M-15 (setting [3]), 14 nM; at SHV-1, 77 nM; at OXA-15 it was 1800 nM. Moreover, the IC50 on AmpC P. aeruginosa (setting [6]) was 3600 nM; at KPC-2 (setting [4]), 160 nM; on P99 AmpC it was 100 nM; at OXA-48 (setting [5]), 1 nM. For the same compound, the MIC in the test on E. coli ECO 190317 was 4 µg/mL.
Take `CCOC(=O)[C@@H]1c2c(sc3ccccc23)[C@@H]2CN1C(=O)N2OS(=O)(=O)[O-].[Na+]` (relative stereo) [Example 2]: the MIC in the test with E. coli ECO 190317 is greater than 32 µg/mL.
As for `O=C1N2Cc3c(sc4ccccc34)C(C2)N1OS(=O)(=O)[O-].[Na+]` (stereo not drawn) [Example 1, Sodium (2,5-methano-3-oxo-1,5-dihydrobenzothiopheno[2,3-e][1,3]diazepin-4-yl) sulfate], the IC50 on OXA-11 amounted to 41 nM; on TEM-1 (setting [1]), 0.65 nM; at OXA-1 (setting [2]) it was 120 nM; on CTX-M-15 (setting [3]), 1 nM; against SHV-1 it was 4.1 nM; against OXA-15, 3400 nM. Further, the IC50 against AmpC P. aeruginosa came out at 8.8 nM; on KPC-2 (setting [4]) it was 26 nM; against P99 AmpC it was 17 nM; on OXA-48 (setting [5]), 1.1 nM. Moreover, in the test on E. coli ECO 190317, the MIC came out at 16 µg/mL.

The values are drawn from patent US11530227B2, “Heterocyclic compounds and their use in preventing or treating bacterial infections” (MUTABILIS, priority 2018, dated 2022).
